Assay results reported in patent publication US10758534B2 (Vertex Pharmaceuticals Incorporated, priority 2014, dated 2020).

target: T1, F508del (Homo sapiens, UniProt P13569, DEL508-508); experiment: Protocol 2: FRET membrane potential optical assay (VIPR), identification of correction compounds; format: cell-based; conditions: Table 3; compounds of Table 1 as modulators of CFTR activity; protocol not stated
T1 construct: expressed in transfected cells
In short: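 NIH3T3 mouse fibroblasts stably expressing F508del-CFTR incubated with compound 16 h at 37 °C in serum-free medium, then loaded with CC2-DMPE/DiSBAC2(3) FRET dyes. Channel activated with 10 μM forskolin plus 20 μM genistein in Cl⁻-free (gluconate) bath; depolarisation from Cl⁻ efflux read on VIPR II.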

T1 sequence (P13569 with tags, fused parts or gaps DEL508-508): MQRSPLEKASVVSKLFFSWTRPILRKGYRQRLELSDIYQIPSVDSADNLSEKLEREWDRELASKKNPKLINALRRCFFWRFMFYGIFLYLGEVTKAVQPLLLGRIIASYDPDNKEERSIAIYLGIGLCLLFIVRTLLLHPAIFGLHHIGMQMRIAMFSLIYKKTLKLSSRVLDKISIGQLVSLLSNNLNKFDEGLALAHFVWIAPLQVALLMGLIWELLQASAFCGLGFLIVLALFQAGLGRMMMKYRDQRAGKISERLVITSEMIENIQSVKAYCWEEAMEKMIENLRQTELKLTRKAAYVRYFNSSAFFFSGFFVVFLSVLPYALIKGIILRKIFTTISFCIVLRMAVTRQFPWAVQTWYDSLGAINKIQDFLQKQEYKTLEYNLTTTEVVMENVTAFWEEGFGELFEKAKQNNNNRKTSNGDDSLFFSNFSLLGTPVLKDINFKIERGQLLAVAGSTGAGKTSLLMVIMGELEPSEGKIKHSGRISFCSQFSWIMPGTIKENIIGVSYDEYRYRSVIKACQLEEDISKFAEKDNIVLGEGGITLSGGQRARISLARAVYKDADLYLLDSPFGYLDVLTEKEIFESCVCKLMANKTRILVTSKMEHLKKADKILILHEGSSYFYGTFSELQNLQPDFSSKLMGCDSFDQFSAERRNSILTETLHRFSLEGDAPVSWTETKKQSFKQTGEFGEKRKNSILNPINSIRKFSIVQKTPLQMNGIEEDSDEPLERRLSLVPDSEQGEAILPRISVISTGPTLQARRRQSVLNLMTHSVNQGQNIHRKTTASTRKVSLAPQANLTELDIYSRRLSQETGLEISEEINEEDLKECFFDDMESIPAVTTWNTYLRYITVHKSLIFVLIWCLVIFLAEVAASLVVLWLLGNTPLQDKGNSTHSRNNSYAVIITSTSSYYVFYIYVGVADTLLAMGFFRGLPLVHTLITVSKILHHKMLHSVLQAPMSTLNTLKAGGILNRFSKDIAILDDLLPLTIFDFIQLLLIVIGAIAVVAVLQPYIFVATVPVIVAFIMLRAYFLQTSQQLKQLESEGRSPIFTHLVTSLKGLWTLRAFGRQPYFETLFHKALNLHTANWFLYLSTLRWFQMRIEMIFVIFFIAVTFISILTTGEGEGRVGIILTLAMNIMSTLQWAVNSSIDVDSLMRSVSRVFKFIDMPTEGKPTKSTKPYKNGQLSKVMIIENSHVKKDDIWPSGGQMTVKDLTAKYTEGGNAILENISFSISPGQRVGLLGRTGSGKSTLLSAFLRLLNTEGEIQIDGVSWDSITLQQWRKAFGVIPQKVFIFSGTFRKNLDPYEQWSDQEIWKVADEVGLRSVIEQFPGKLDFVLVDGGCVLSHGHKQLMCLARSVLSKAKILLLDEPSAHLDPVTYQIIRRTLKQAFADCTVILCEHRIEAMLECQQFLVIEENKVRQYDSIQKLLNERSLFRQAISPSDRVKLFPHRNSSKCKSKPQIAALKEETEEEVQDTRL

Compound | EC30
Cc1cccc(C)c1Cn1nc(-c2ccc(N3CCCCC3)nc2)cc1C(=O)NS(=O)(=O)c1ccccc1 [Compound 329, N-(benzenesulfonyl)-2-[(2,6-dimethylphenyl)methyl]-5-[6-(1-piperidyl)-3-pyridyl]pyrazole-3-carboxamide] | +++ (“+++” means <3 uM)
Cc1cccc(C)c1Cn1nc(-c2ccc(F)cc2)cc1C(=O)NS(=O)(=O)c1ccccc1 [Compound 333, N-(benzenesulfonyl)-2-[(2,6-dimethylphenyl)methyl]-5-(4-fluorophenyl)pyrazole-3-carboxamide] | +++ (“+++” means <3 uM)
CC(C)Oc1ccc(-c2ccc(C(=O)NS(=O)(=O)c3cccc(N)n3)c(N3[C@H](C)CC[C@@H]3C)n2)cn1 [Compound 337, N-[(6-amino-2-pyridyl)sulfonyl]-2-[(2S,5R)-2,5-dimethylpyrrolidin-1-yl]-6-(6-isopropoxy-3-pyridyl)pyridine-3-carboxamide] | +++ (“+++” means <3 uM)
Cc1cccc(C)c1Cn1nc(-c2ccccc2Cl)cc1C(=O)NS(=O)(=O)c1ccccc1 [Compound 339, N-(benzenesulfonyl)-5-(2-chlorophenyl)-2-[(2,6-dimethylphenyl)methyl]pyrazole-3-carboxamide] | +++ (“+++” means <3 uM)
Cc1ccc(Oc2nc(-c3ccccc3)ccc2C(=O)NS(=O)(=O)c2cccc(N)n2)c(C)c1 [Compound 340, N-[(6-amino-2-pyridyl)sulfonyl]-2-(2,4-dimethylphenoxy)-6-phenyl-pyridine-3-carboxamide] | +++ (“+++” means <3 uM)
Cc1cc(C)c(Oc2nc(-c3ccc(F)c4c3OCO4)ccc2C(=O)NS(=O)(=O)c2cccc(N)n2)c(C)c1 [Compound 345, N-[(6-amino-2-pyridyl)sulfonyl]-6-(7-fluoro-1,3-benzodioxol-4-yl)-2-(2,4,6-trimethylphenoxy)pyridine-3-carboxamide] | +++ (“+++” means <3 uM)
COc1ccccc1-c1cc(C(=O)NS(=O)(=O)c2ccccc2)n(Cc2c(C)cccc2C)n1 [Compound 347, N-(benzenesulfonyl)-2-[(2,6-dimethylphenyl)methyl]-5-(2-methoxyphenyl)pyrazole-3-carboxamide] | +++ (“+++” means <3 uM)
Cc1cc(C)c(Oc2nc(-c3cc(OCC(C)C)ccc3F)ccc2C(=O)NS(=O)(=O)c2cccc(N)n2)c(C)c1 [Compound 351, N-[(6-amino-2-pyridyl)sulfonyl]-6-(2-fluoro-5-isobutoxy-phenyl)-2-(2,4,6-trimethylphenoxy)pyridine-3-carboxamide] | +++ (“+++” means <3 uM)
CC(C)Oc1ccc(-c2ccc(C(=O)NS(=O)(=O)c3cccc(N)n3)c(N3CCCC(C)C3C)n2)cn1 (stereo not drawn) [Compound 353, N-[(6-amino-2-pyridyl)sulfonyl]-2-(2,3-dimethyl-1-piperidyl)-6-(6-isopropoxy-3-pyridyl)pyridine-3-carboxamide] | +++ (“+++” means <3 uM)
CC(C)COc1cc(F)cc(-c2ccc(C(=O)NS(=O)(=O)c3ccn[nH]3)c(N3CCCCC3)n2)c1 [Compound 355, 6-(3-fluoro-5-isobutoxy-phenyl)-2-(1-piperidyl)-N-(1H-pyrazol-5-ylsulfonyl)pyridine-3-carboxamide] | +++ (“+++” means <3 uM)
Cc1cc(C)c(Cn2nc(C(C)(C)C)c(C)c2C(=O)NS(=O)(=O)c2cccc(N)n2)c(C)c1 [Compound 356, N-[(6-amino-2-pyridyl)sulfonyl]-5-tert-butyl-4-methyl-2-[(2,4,6-trimethylphenyl)methyl]pyrazole-3-carboxamide] | +++ (“+++” means <3 uM)
Cc1cc(C)c(Cn2c(C(=O)NS(=O)(=O)c3ccccc3C#N)cc3ccccc32)c(C)c1 [Compound 358] | +++ (“+++” means <3 uM)
CC(C)COc1cc(F)cc(-c2ccc(C(=O)NS(=O)(=O)c3cccc(N)n3)c(N3CCCC3(C)C)n2)c1 [Compound 361, N-[(6-amino-2-pyridyl)sulfonyl]-2-(2,2-dimethylpyrrolidin-1-yl)-6-(3-fluoro-5-isobutoxy-phenyl)pyridine-3-carboxamide] | +++ (“+++” means <3 uM)

Continued, values first:

EC30 | Compound
+++ (“+++” means <3 uM) | CC(C)(C)c1cc(C(=O)NS(=O)(=O)c2ccccc2)n(Cc2cccc3ccccc23)n1 [Compound 328, N-(benzenesulfonyl)-5-tert-butyl-2-(1-naphthylmethyl)pyrazole-3-carboxamide]
+++ (“+++” means <3 uM) | Cc1cc(C)c(Oc2nc(C(C)(C)C)ccc2C(=O)NS(=O)(=O)c2cccnc2)c(C)c1 [Compound 330, 6-tert-butyl-N-(3-pyridylsulfonyl)-2-(2,4,6-trimethylphenoxy)pyridine-3-carboxamide]
+++ (“+++” means <3 uM) | Cc1cccc(C)c1Cn1c(C(=O)NS(=O)(=O)c2cccc(N)c2)cc2ccccc21 [Compound 331, N-(3-aminophenyl)sulfonyl-1-[(2,6-dimethylphenyl)methyl]indole-2-carboxamide]
+++ (“+++” means <3 uM) | CC(=O)c1cccc(S(=O)(=O)NC(=O)c2cc(C(C)(C)C)nn2Cc2c(C)cc(C)cc2C)c1 [Compound 332, N-(3-acetylphenyl)sulfonyl-5-tert-butyl-2-[(2,4,6-trimethylphenyl)methyl]pyrazole-3-carboxamide]
++ (“++” means between 3 uM and 10 uM) | CC(C)(C)c1ccc(C(=O)NS(=O)(=O)c2cccc(N)n2)c(-c2ccccc2)n1 [Compound 334, N-[(6-amino-2-pyridyl)sulfonyl]-6-tert-butyl-2-phenyl-pyridine-3-carboxamide]
+++ (“+++” means <3 uM) | COc1cccc(S(=O)(=O)NC(=O)c2cc3ccccc3n2Cc2c(C)cc(C)cc2C)c1 [Compound 335, N-(3-methoxyphenyl)sulfonyl-1-[(2,4,6-trimethylphenyl)methyl]indole-2-carboxamide]
+++ (“+++” means <3 uM) | COc1ccc2c(c1)cc(C(=O)NS(=O)(=O)c1cccc(N)c1)n2Cc1c(C)cc(C)cc1C [Compound 336, N-(3-aminophenyl)sulfonyl-5-methoxy-1-[(2,4,6-trimethylphenyl)methyl]indole-2-carboxamide]
+++ (“+++” means <3 uM) | Cc1cc(C)c(Oc2cc(C(C)(C)C)ncc2C(=O)NS(=O)(=O)c2cccc(N)c2)c(C)c1 [Compound 338, N-(3-aminophenyl)sulfonyl-6-tert-butyl-4-(2,4,6-trimethylphenoxy)pyridine-3-carboxamide]
+++ (“+++” means <3 uM) | Cc1cc(C)c(Oc2nc(C(C)(C)C)ccc2C(=O)NS(=O)(=O)c2ccccc2)c(C)c1 [Compound 341, N-(benzenesulfonyl)-6-tert-butyl-2-(2,4,6-trimethylphenoxy)pyridine-3-carboxamide]
+++ (“+++” means <3 uM) | Cc1ccccc1C(C)n1nc(C(C)(C)C)cc1C(=O)NS(=O)(=O)c1cccc(N)c1 (stereo not drawn) [Compound 342, N-(3-aminophenyl)sulfonyl-5-tert-butyl-2-[1-(o-tolyl)ethyl]pyrazole-3-carboxamide]
+++ (“+++” means <3 uM) | Cc1cc(C)c(Cn2c(C(=O)NS(=O)(=O)c3cccc(N)c3)cc3cc(Cl)ccc32)c(C)c1 [Compound 344, N-(3-aminophenyl)sulfonyl-5-chloro-1-[(2,4,6-trimethylphenyl)methyl]indole-2-carboxamide]
+++ (“+++” means <3 uM) | Cc1cc(C)c(Cc2nc(C(C)(C)C)ccc2C(=O)NS(=O)(=O)c2cccc(N)c2)c(C)c1 [Compound 346, N-(3-aminophenyl)sulfonyl-6-tert-butyl-2-[(2,4,6-trimethylphenyl)methyl]pyridine-3-carboxamide]
+++ (“+++” means <3 uM) | COc1cccc2c1cc(C(=O)NS(=O)(=O)c1ccccc1)n2Cc1c(C)cc(C)cc1C [Compound 348, N-(benzenesulfonyl)-4-methoxy-1-[(2,4,6-trimethylphenyl)methyl]indole-2-carboxamide]
++ (“++” means between 3 uM and 10 uM) | Cc1ccc(-c2nc(C(C)(C)C)ccc2C(=O)NS(=O)(=O)c2cccc(N)c2)cc1F [Compound 349, N-(3-aminophenyl)sulfonyl-6-tert-butyl-2-(3-fluoro-4-methyl-phenyl)pyridine-3-carboxamide]
+++ (“+++” means <3 uM) | Cc1cc(C)c(Oc2ccc(C(C)(C)C)nc2C(=O)NS(=O)(=O)c2ccccc2)c(C)c1 [Compound 350, N-(benzenesulfonyl)-6-tert-butyl-3-(2,4,6-trimethylphenoxy)pyridine-2-carboxamide]
+++ (“+++” means <3 uM) | Cc1cc(C)c(Cn2nc(C(C)(C)C)cc2C(=O)NS(=O)(=O)c2cccc3ncccc23)c(C)c1 [Compound 352, 5-tert-butyl-N-(5-quinolylsulfonyl)-2-[(2,4,6-trimethylphenyl)methyl]pyrazole-3-carboxamide]
+++ (“+++” means <3 uM) | Cc1cc(C)c(Cn2c(C(=O)NS(=O)(=O)c3ccccc3)cc3cccc(C)c32)c(C)c1 [Compound 354, N-(benzenesulfonyl)-7-methyl-1-[(2,4,6-trimethylphenyl)methyl]indole-2-carboxamide]
++ (“++” means between 3 uM and 10 uM) | Cc1cccc(C)c1Cn1nc(-c2ccsc2)cc1C(=O)NS(=O)(=O)c1ccccc1 [Compound 357, N-(benzenesulfonyl)-2-[(2,6-dimethylphenyl)methyl]-5-(3-thienyl)pyrazole-3-carboxamide]
+++ (“+++” means <3 uM) | CCc1ccc(-c2nc(C(C)(C)C)ccc2C(=O)NS(=O)(=O)c2cccc(N)c2)cc1 [Compound 359, N-(3-aminophenyl)sulfonyl-6-tert-butyl-2-(4-ethylphenyl)pyridine-3-carboxamide]
+++ (“+++” means <3 uM) | Cc1cc(C)c(Cc2oc(C(C)(C)C)nc2C(=O)NS(=O)(=O)c2cccc(N)c2)c(C)c1 [Compound 360, N-(3-aminophenyl)sulfonyl-2-tert-butyl-5-[(2,4,6-trimethylphenyl)methyl]oxazole-4-carboxamide]
